The source of these data is patent US20090227680A1, “Amino Acid Derivatives” (Pfizer, Inc., priority 2005, published 2009).

Structures can show the parent of a compound that is named as a salt.

T1 sequence (A0A287BIN3 25-1109): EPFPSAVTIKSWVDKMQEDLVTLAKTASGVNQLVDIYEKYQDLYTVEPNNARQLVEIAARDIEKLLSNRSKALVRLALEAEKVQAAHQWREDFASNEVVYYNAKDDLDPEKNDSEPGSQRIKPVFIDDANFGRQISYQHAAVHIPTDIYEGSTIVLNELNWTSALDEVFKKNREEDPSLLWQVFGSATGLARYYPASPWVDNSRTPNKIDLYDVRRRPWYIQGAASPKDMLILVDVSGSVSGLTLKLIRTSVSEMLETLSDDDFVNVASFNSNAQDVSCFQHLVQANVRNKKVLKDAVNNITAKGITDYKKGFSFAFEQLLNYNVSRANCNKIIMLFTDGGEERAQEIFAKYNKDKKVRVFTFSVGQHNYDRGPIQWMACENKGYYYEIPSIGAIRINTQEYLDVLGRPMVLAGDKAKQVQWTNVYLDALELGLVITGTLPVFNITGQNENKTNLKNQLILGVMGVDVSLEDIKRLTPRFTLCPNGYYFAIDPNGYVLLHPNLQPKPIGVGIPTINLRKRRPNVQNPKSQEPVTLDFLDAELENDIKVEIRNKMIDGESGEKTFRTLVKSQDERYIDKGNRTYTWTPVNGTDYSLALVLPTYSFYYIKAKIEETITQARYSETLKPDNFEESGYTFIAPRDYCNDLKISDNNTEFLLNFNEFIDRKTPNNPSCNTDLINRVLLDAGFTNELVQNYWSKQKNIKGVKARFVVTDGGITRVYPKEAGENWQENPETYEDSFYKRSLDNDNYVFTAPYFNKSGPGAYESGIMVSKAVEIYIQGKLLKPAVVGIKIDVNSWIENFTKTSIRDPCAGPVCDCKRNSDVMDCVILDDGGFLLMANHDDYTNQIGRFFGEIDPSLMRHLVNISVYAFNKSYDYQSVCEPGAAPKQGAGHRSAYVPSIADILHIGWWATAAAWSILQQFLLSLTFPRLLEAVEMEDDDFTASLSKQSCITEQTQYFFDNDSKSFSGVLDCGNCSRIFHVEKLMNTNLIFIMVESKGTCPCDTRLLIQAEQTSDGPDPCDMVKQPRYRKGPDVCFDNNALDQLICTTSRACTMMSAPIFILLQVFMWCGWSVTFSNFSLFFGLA

This experiment addresses T1, α2δ subunit derived from porcine brain tissue (Sus scrofa, UniProt A0A287BIN3).
T1 construct: the α2δ subunit derived from porcine brain tissue; from tissue; host or cells: porcine brain tissue
Description: radioligand binding assay using [3H]gabapentin and the α2δ subunit. As to conditions: [3H]gabapentin binding. The source says: The biological activity of the alpha-2-delta ligands of the invention may be measured in a radioligand binding assay using [^3H]gabapentin and the α2δ subunit derived from porcine brain tissue (Gee N. S., Brown J. P., Dissanayake V. U. K., Offord J., Thurlow R., Woodruff G. N., J. Biol. Chem., 1996; 271:5768-5776). Results may be expressed in terms of μM or nM α2δ binding affinity.
As for `NC[C@H](Oc1ccccc1Cl)C(=O)O` [Example 3], the IC50 is 0.124 µM.

`NC[C@H](Oc1cccc(Cl)c1)C(=O)O` [Example 2] came in with an IC50 of 0.091 µM.

As for `NC[C@H](Oc1cc(Cl)ccc1Cl)C(=O)O` [Example 1, (2S)-3-Amino-2-(2,5-dichlorophenoxy)propanoic acid hydrochloride], the IC50 is 0.009 µM.

In turn, `COc1ccc(Cl)cc1O[C@@H](CN)C(=O)O` [Example 4] gave a half-maximal inhibitory concentration (IC50) of 0.012 µM.

`CCCc1cccc(O[C@@H](CN)C(=O)O)c1` [Example 5, (2S)-3-Amino-2-(3-propylphenoxy)propanoic acid hydrochloride] registered an IC50 of 0.114 µM.

Usually IC50 stands for the midpoint of a concentration-inhibition curve. Read a high IC50 as lower potency.
